Patent US11795135B2, “Prostacyclin compounds, compositions and methods of use thereof” (Insmed Incorporated, priority 2013, dated 2023)
Entries after “also recorded” stand apart in the source; their conditions may differ. Values belong to the compound of their own block, whether it stands above or below them.

What was measured:
[1] = test system: Rat alveolar NR8383 cells; test: NR8383 cell proliferation assay (Presto Blue); format: cell-based; details: unformulated alkyl esters, 72 hour incubation
Method: Rat alveolar NR8383 cells were harvested when the monolayer was 50-90% confluent (use passage 5-11). Because the NR8383 cells include both adherent and non-adherent cells, media was transferred to a 50 mL Falcon tube. To obtain the cells remaining in the flask, 2 mL of plain media was added, and the remaining cells were scraped out of the 75 cm^2 flask with a cell scraper and added to the 50 mL tube. […] SH30071.03)+1×Pen-Strep (Life Technologies, cat #: 15410-122)). Cell number was determined using a hemacytometer. […] Measurements and calculations were made as described above for the CHO-K1 cells.

[2] = Treprostinil alkyl ester conversion to treprostinil in dog lung tissue homogenate; format: in vitro ADME; details: 37° C., 200 nM, 4 hours, 10 mg/mL of protein
Method: (§1) Treprostinil alkyl ester conversion to treprostinil was also measured in the presence of rat, dog and monkey lung tissue homogenate at 37° C. Here, data were calculated based on fit of exponential increase to the maximum (experiments performed in duplicate). The results of this study are provided below in Table 2A and FIG. 37. […] Both FIG. 37 experiments (left and right graphs) were performed in duplicate and the lines represent nonlinear exponential regression assuming 1 phase decay.

[3] = Treprostinil alkyl ester conversion to treprostinil in monkey lung tissue homogenate; format: in vitro ADME; details: 37° C., 200 nM, 4 hours, 10 mg/mL of protein
Method: as §1

[4] = Treprostinil alkyl ester conversion to treprostinil in rat lung tissue homogenate; format: in vitro ADME; details: 37° C., 200 nM, 4 hours, 10 mg/mL of protein
Method: as §1

CHO-K1 cells = test: CHO-K1 cell proliferation assay (Presto Blue); details: unformulated alkyl esters, 48 hour incubation
Method: CHO-K1 cells were harvested when the cell monolayer was 50-90% confluent (use passage 4-11). Media was aspirated out of the flask, and cells were rinsed with 2 mL of F12 media. Next, 1 mL of pre-warmed (37° C.) 0.25% trypsin-EDTA (Life Technologies, Cat #: 25300054) was added, and cells were dislodged from the flask by tapping it on the side. Complete growth media (F12 (Life Technologies, Cat #: 31765092)+10% FBS (Hyclone, Cat #: SH30071.03)+1× Pen-Strep (Life Technologies, cat #15140-122) was then added at a volume of 10 mL. Cells were centrifuged at 250×g for 5 minutes at room temperature, and the media was aspirated. The cell pellet was resuspended in 10 mL complete growth media. Cell number was determined using a hemacytometer. Cells were then seeded at 2000 cells per well of a 96-well plate in 100 μL of complete growth media. The plate was incubated overnight at 37° C. and 5% CO2 in a water-jacketed incubator.
The next day, 80 μL of fresh complete media was added to each well, and CHO-K1 cells were challenged with treprostinil compound and composition treatments. The working solutions were prepared at 10× concentration, and following 2 fold serial dilutions, 20 μL aliquots were added per well to arrive at a final 1× concentration. Following a 48 hour incubation at 37° C. and 5% CO2 in a water-jacketed incubator, the inhibitory effect on cell proliferation was determined. Plates were analyzed using 20 μL of Presto Blue reagent (Life Technologies, cat #: A13262) per well. The reagent was mixed, and plates were incubated for 1 hour at 37° C. and 5% CO2 in a water-jacketed incubator. Plates were read using either a CytoFluor Series 4000 (PerSeptive BioSystems) or Synergy Neo microplate reader (BioTek) with emission λ: 590 nm and excitation λ: 560 nm.
at concentrations ranging from 0.55 μM to 125 μM. Following a 48 hour incubation period, the inhibitory effect of the treprostinil derivative compositions on cell proliferation was determined.
C2, C3, C4, C5, C6, C8, C10 or Cu straight chain alkyl, at dosages ranging from 0.098 μM to 25 μM. Following a 48 hour incubation period, the inhibitory effect on cell proliferation was determined.
Following a 72 hour incubation period, the inhibitory effect on cell proliferation was determined. Following a 48 hour incubation period, the inhibitory effect on cell proliferation was determined.
Similarly, CHO-K1 cells were challenged with the treprostinil compositions T612 (R2=C2), T613 (R2=C8) at concentrations ranging from 1.41 μM to 180 μM.

[5] = Tolerability and pharmacokinetics in rats, T748 inhaled for 14 consecutive days; format: in vivo, rat; details: T748, 0.6-18 μg/kg
Method: Body weights were recorded daily and organ weights (lungs, heart, liver) were measured 24 hr. after the last drug dose.

EP2 prostanoid receptor = target: T1, EP2 prostanoid receptor (Homo sapiens, UniProt P43116); test: GloSensor cAMP assay in CHO-K1 cells co-transfected with the EP2 receptor; format: cell-based; details: for Max cAMP level (Fold): CHO-K1 cells
T1 construct: host or cells: CHO-K1
T1 sequence (P43116 whole entry): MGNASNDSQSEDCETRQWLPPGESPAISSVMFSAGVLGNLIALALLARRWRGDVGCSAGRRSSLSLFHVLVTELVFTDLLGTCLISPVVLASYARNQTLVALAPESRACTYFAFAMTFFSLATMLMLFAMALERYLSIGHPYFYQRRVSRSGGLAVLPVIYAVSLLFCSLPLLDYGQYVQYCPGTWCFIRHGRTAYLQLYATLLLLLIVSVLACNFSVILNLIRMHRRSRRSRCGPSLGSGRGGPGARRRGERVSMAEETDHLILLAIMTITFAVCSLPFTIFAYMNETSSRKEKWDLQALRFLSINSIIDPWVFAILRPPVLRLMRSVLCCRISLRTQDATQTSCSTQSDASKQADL
From the text: cAMP is a second messenger involved in signal transduction of G-protein coupled receptors (GPCRs) acting through Gα-s and Gα-i proteins. Because the treprostinil receptor is a GPCR, the assay provides an indication of whether the respective prostacyclin compound (or metabolite thereof) binds its receptor and activates the GPCR cell signaling cascade. The GloSensorTM assay harnesses a genetically modified form of firefly luciferase into which a cAMP-binding protein moiety has been inserted. Upon binding of cAMP, a conformational change is induced leading to increased light output. The EP2 prostanoid receptor was co-transfected with the GloSensorTM plasmid (Promega) into CHO-K1 cells as follows. CHO-K1 cells were harvested when the monoloayer was at 50-90% confluence. First, cells were washed with 5 mL PBS. […] The media was aspirated, and the cell pellet was resuspended in 10 mL of growth media. Cell number was determined using a hemacytometer. Each well of a culture treated 96 well flat bottom plate (Costar, Cat #: 3917) was seeded with 1×10^4 cells per 100 μL antibiotic-free growth media. […] For small scale transfections of up to 20 wells, the pGLoSensor-22F cAMP plasmid (Promega, Cat #: E2301) (2 μg): (EP2) (10 ng) (Origene, Cat #: SC126558):pGEM-3Zf(+) (10 ng) (Promega, Cat #: P2271) ratio was diluted to a final concentration of 12.6 ng/μL (total plasmid) in Opti-MEM I reduced-serum medium (Life Technologies, Cat #: 1985062). Next, 6 μL of FuGENE HD transfection reagent (Promega, Cat #: E2311) was added to 160 μL of diluted plasmid and mixed carefully by gentle pipetting. The complex was incubated at room temperature for 0 to 10 minutes, and then 8 μL of the complex was added per well of a 96 well white assay plate (Costar, Cat #: 3917) and gently mixed without disturbing the cell monolayer. […] Following incubation, cells were treated and analyzed. For larger scale transfections, the aforementioned steps were scaled up accordingly, and cells were frozen following the last incubation. In order to prepare frozen transfected CHO-K1 cells, the media was aspirated from culture flasks and cells were rinsed with 5 mL PBS. […] Cell number was determined using a hemacytometer. The media was aspirated, and the cell pellet was resuspended in freezing media (Millipore, cat #: S-002-5F) at 2.5×10^6 cells/vial. Transfected cells were incubated overnight at -80° C. before transfer to liquid nitrogen for long term storage. […] In preparation for cAMP measurement, the cells were equilibrated with the GloSensor cAMP reagent prior to treatment. For equilibration, the medium was carefully removed from the individual well. Next, 100 μL of equilibration medium ([…] of Glosensor Reagent stock solution (Promega, Cat #: E291), 10% FBS (Hyclone, Cat #: SH30071.03) and 88% CO2 independent medium (Life Technologies, Cat #: 18045088)) was added per well of the 96-well plate, and added to the side of each well. The plate was then incubated for 2 hours at room temperature. A first pre-read measurement was taken using a microplate reader (MicroLumat Plus). Plates were incubated for an additional 10 minutes at room temperature, followed by a second pre-read measurement. […] Following treatment, each plate was read every 5 minutes for the duration of the assay using a microplate reader (MicroLumat Plus). In order to determine the fold change in cAMP relative to the control, the transfection efficiency was first determined by dividing the second pre-read measurement by the average of the corresponding pre-read measurements. Next, the normalized relative light units (RLUs) of the samples were determined by dividing the plate read measurement by the transfection efficiency. The fold change in cAMP relative to the control was then determined by dividing the normalized RLU of the samples by the normalized RLU of the control. The cAMP assay was validated using free treprostinil. […] Luminescence was then measured at room temperature. […]

[6] = test system: Cough Reflex in Guinea Pigs; test: Cough reflex in guinea pigs (whole body plethysmograph); format: in vivo, guinea pig
Method: T623 has the following components:
Aerosols were generated with an Ultra-Neb Pro nebulizer (nebulizer output 0.36 mL/min.) that was mixed with inspired air delivered at a rate of 2 L/min. The PBS or drugs were delivered for 10 min. and the number of coughs recorded during and for 20 min. after the delivery. Coughs were detected by visual observations, plethysmograph recordings and cough sounds.

[7] = dog, in vivo
Method: Twelve beagle dogs of either sex were randomly assigned to different inhaled doses of treprostinil in PBS or the compound of Formula (A) wherein
Formulations were nebulized with an Aeroneb nebulizer (MMAD: 2.5-4 μm) delivered into a 500 ml expansion chamber. Formulations were nebulized for 2 min at ventilator settings of 90 ml/breath, 15 breaths/min (delivered volume=2.7 L) and collected on a filter. Drug amount (m) on the filter was measured by HPLC to calculate the concentration of drug delivered through the ventilator circuit (μg/L).
Dosimetry was performed in propofol-anesthetized dogs in which nebulized drugs were introduced into a mixing chamber interposed on the inspiratory limb of a canine respirator. Technical trials were performed before each experiment to measure the concentration of drug (μg/L) delivered for each breath. The inhaled drug dose (μ/kg) was calculated using the formula: Inhaled Drug Dose (μg/kg)=Drug Conc. (μg/L)×Minute Ventilation (L/min.)×Time (min.)/Body Weight (kg). […] Clinical signs were monitored over this 72 hr. period.
Dosimetry was performed in propofol-anesthetized, artificially ventilated dogs in which nebulized drugs were introduced into a mixing chamber interposed on the inspiratory limb of the respirator. […] Clinical signs (cough, rapid shallow breathing, emesis and pale gums) were also monitored.

[8] = Treprostinil pharmacokinetics in anaesthetised, ventilated rats after nebulized dosing; format: in vivo, rat; details: nebulized TRE solution
Method: Male Sprague Dawley rats were anaesthetised and prepared with endotracheal tube for ventilation. The right femoral vein was cannulated to facilitate blood collections. Terminal lung samples were taken for analysis only 6 hours after dosing. […] Systemic blood pressure (mSAP), heart rate (HR), and arterial oxygen saturation (SaO2). Physiologic parameters were measured during normoxia (fraction of inspired oxygen [FrO2]=0.21, SaO2≈90%) and for 2 to 3 hours during hypoxia (FrO2=0.10, SaO2≈50%).

[9] = nebulized concentration of 30 μg/mL

Rate of treprostinil alkyl ester conversion [2]: 49.8 nmOL/h * g of protein | Rate of treprostinil alkyl ester conversion [3]: 17.3 nmOL/h * g of protein | Rate of treprostinil alkyl ester conversion [4]: 32.5 nmOL/h * g of protein
SMILES: CCCCCCCCOC(=O)COc1cccc2c1C[C@H]1C[C@@H](O)[C@H](CC[C@@H](O)CCCCC)[C@H]1C2 [Compound C8-TR, treprostinil octyl ester]
Effect on cell proliferation, NR8383 Cells (0.195 μM-25 μM) [1]: showed some inhibition of cell proliferation | Effect on cell proliferation, CHO-K1 Cells (0.195 μM-25 μM) (CHO-K1 cells): showed inhibition of cell proliferation

Rate of treprostinil alkyl ester conversion [2]: 2.2 nmOL/h * g of protein | Rate of treprostinil alkyl ester conversion [3]: 0.6 nmOL/h * g of protein | Rate of treprostinil alkyl ester conversion [4]: 1.1 nmOL/h * g of protein
SMILES: CCCCCCCCCCCCOC(=O)COc1cccc2c1C[C@H]1C[C@@H](O)[C@H](CC[C@@H](O)CCCCC)[C@H]1C2 [Compound C12-TR, dodecyl-treprostinil]
Effect on cell proliferation, NR8383 Cells (0.195 μM-25 μM) [1]: No detectable cell inhibition | Effect on cell proliferation, CHO-K1 Cells (0.195 μM-25 μM) (CHO-K1 cells): No detectable cell inhibition

SMILES: CCCCCCCCCCCCCCCCOC(=O)COc1cccc2c1C[C@H]1C[C@@H](O)[C@H](CC[C@@H](O)CCCCC)[C@H]1C2 [Compound C16-TR, hexadecyl-treprostinil]
tolerability, body weights and organ weights [5]: no tolerability issues or significant changes (relative to PBS) in body weights and organ weights; also recorded: well tolerated with no evidence of body weight and organ weight change | ranking of activity of the treprostinil compounds (EP2 prostanoid receptor; kinetic profile, 10 μM and 5 μM, FIG. 21): C12-TR>C14-TR>5-nonanyl-TR>C16-TR

exposure concentration consistently evoking cough ([6]; 1-300 μg/ml tested): ≥ 30 µg/mL | cough bouts [6, 9]: 1-4 | cough response [6, 9]: consistent cough in 7 of 7 guinea pigs | total number of coughs ([6]; nebulized concentration of 30 μg/mL, 10 min delivery + 20 min): 36±9 coughs | period over which plasma levels of treprostinil were sustained [7]: disappeared within a few hours | cAMP levels sustained for (EP2 prostanoid receptor; 10 μM, composition, FIG. 3A): not exhibited | Max cAMP level (Fold) (EP2 prostanoid receptor; Effect of nebulization (FIG. 6), head prints (5 μM)): ~15 Fold | EC50 (EP2 prostanoid receptor; cAMP response in CHO-K1 cells, 4.5 hr incubation): 0.2 µM | Max cAMP level (Fold) (EP2 prostanoid receptor; compositions shown in FIG. 3, 8 hours time course): ~16 Fold | Max cAMP level (Fold) (EP2 prostanoid receptor; compositions shown in FIG. 4, 5 μM, 8 hours time course): ~14 Fold | time beyond which measurable levels of TRE were not seen in the blood plasma [8]: ≤ 4 h
SMILES: CCCCC[C@H](O)CC[C@@H]1[C@H]2Cc3cccc(OCC(=O)O)c3C[C@H]2C[C@H]1O [Treprostinil, (1R,2R,3aS,9aS)-[[2,3,3a,4,9,9α-hexahydro-2-hydroxy-1-[(3S)-3-hydroxyoctyl]-1H-benz[f]inden-5-yl]oxy]acetic acid]
